# Patent publication US20090208747A1, “Novel Crystalline Methods and Novel Crystalline and Amorphous forms of Halogenated Sugars” (V.B. MEDICARE PVT. LTD, priority 2006, published 2009)
# Where two headings read alike, the source gives them in different places.
# Legend:
# [1] = Stability testing as per ICH Guideline Q1A(R2), storage stability; type: physicochemical
# Source text: Stability testing was done as per ICH Harmonised Tripaertite Guideline Stability Testing of New drug substances and Products Q1A(R2) issued by International Conference on Hamonization of technical requirements for registration of pharmaceuticals for human use and recommended for adoption at Step 4 of the ICH Process on 6 Feb.
# Details are given on table nos 1 to 4 given in the following: […]
# [2] = Accelerated stability test, sealed containers incubated at 50° C.; type: physicochemical; details: sealed container; for Assay (%) / PH: listed as Crystalline TGS crystallized from butanol:methanol mixture
# Protocol: For extrapolating potential storage stability beyond one year, an accelerated storage stability test was conducted. In this test, crystalline TGS of small and large mean particle size was incubated at 50° C. in sealed containers. Percent assay and pH were tested after each 24 hours for five successive days. […] A three days' stability in accelerated stability test is extrapolated by Catani et al (2005) to 8 years of storage stability at ambient temperature.
# All the three samples were taken in sealed containers and were incubated at 50° C. […]
# [3] = Analysis against JECFA specifications: solubility; type: physicochemical; details: in ethyl acetate
# Particle size analysis = details: for particle size distribution at 90%: 90% of particles below this size
# Protocol: The TGS crystals obtained were tested for purity and particle size.
# The solids obtained were tested for purity, particle size and X ray diffraction for the nature of solid obtained.
# [4] = 25° C. ± 2° C. 60% RH ± 5% RH, 1st month
# [5] = 25° C. ± 2° C. 60% RH ± 5% RH, 2nd month
# [6] = 25° C. ± 2° C. 60% RH ± 5% RH, 3rd month
# [7] = 25° C. ± 2° C. 60% RH ± 5% RH, 4th month
# [8] = 25° C. ± 2° C. 60% RH ± 5% RH, 5th month
# [9] = 25° C. ± 2° C. 60% RH ± 5% RH, 6th month
# [10] = 25° C. ± 2° C. 60% RH ± 5% RH, 12th month
# [11] = 25° C. ± 2° C. 60% RH ± 5% RH, 24th month
# [12] = 25° C. ± 2° C. 60% RH ± 5% RH, INITIAL
# [13] = 30° C. ± 2° C. 65% RH ± 5% RH, 1st month
# [14] = 30° C. ± 2° C. 65% RH ± 5% RH, 2nd month
# [15] = 30° C. ± 2° C. 65% RH ± 5% RH, 3rd month
# [16] = 30° C. ± 2° C. 65% RH ± 5% RH, 4th month
# [17] = 30° C. ± 2° C. 65% RH ± 5% RH, 5th month
# [18] = 30° C. ± 2° C. 65% RH ± 5% RH, 6th month
# [19] = 30° C. ± 2° C. 65% RH ± 5% RH, 12th month
# [20] = 30° C. ± 2° C. 65% RH ± 5% RH, 24th month
# [21] = 30° C. ± 2° C. 65% RH ± 5% RH, INITIAL
# [22] = 40° C. ± 2° C. 75% RH ± 5% RH, 1st month
# [23] = 40° C. ± 2° C. 75% RH ± 5% RH, 2nd month
# [24] = 40° C. ± 2° C. 75% RH ± 5% RH, 3rd month
# [25] = 40° C. ± 2° C. 75% RH ± 5% RH, 4th month
# [26] = 40° C. ± 2° C. 75% RH ± 5% RH, 5th month
# [27] = 40° C. ± 2° C. 75% RH ± 5% RH, 6th month
# [28] = 40° C. ± 2° C. 75% RH ± 5% RH, 12th month
# [29] = 40° C. ± 2° C. 75% RH ± 5% RH, 24th month
# [30] = 40° C. ± 2° C. 75% RH ± 5% RH, INITIAL
structure (smiles),measurement,setting,value
"OC[C@H]1O[C@H](O[C@]2(CCl)O[C@H](CCl)[C@@H](O)[C@@H]2O)[C@H](O)[C@@H](O)[C@H]1Cl [Crystalline TGS small particle size, 1′-6′-Dichloro-1′-6′-DIDEOXY-β-Fructofuranasyl-4-chloro-4-deoxy-galactopyranoside]",Appearance,[1]; [4],Normal
same,Assay,[1]; [4],99.02%
same,Specific Rotation,[1]; [4],+85.99°
same,Water content,[1]; [4],0.73%
same,Appearance,[1]; [5],Normal
same,Assay,[1]; [5],99.04%
same,Specific Rotation,[1]; [5],+84.63°
same,Water content,[1]; [5],0.63%
same,Appearance,[1]; [6],Normal
same,Assay,[1]; [6],99.05%
same,Specific Rotation,[1]; [6],+85.31°
same,Water content,[1]; [6],0.22%
same,Appearance,[1]; [7],Normal
same,Specific Rotation,[1]; [7],+84.20°
same,Water content,[1]; [7],0.41%
same,Appearance,[1]; [8],Normal
same,Assay,[1]; [8],98.42%
same,Specific Rotation,[1]; [8],+87.22°
same,Water content,[1]; [8],0.17%
same,Appearance,[1]; [9],Normal
same,Assay,[1]; [9],99.07%
same,Specific Rotation,[1]; [9],+86.78°
same,Water content,[1]; [9],0.23%
same,Appearance,[1]; [10],Normal
same,Assay,[1]; [10],99.02%
same,Specific Rotation,[1]; [10],+85.93°
same,Water content,[1]; [10],0.33%
same,Appearance,[1]; [11],Normal
same,Assay,[1]; [11],98.78%
same,Specific Rotation,[1]; [11],+84.63°
same,Water content,[1]; [11],0.53%
same,Appearance,[1]; [12],Normal
same,Specific Rotation,[1]; [12],+86.07°
same,Water content,[1]; [12],0.52%
same,Appearance,[1]; [13],Normal
same,Specific Rotation,[1]; [13],+86.01°
same,Water content,[1]; [13],0.69%
same,Appearance,[1]; [14],Normal
same,Specific Rotation,[1]; [14],+85.11°
same,Water content,[1]; [14],0.19%
same,Appearance,[1]; [15],Normal
same,Assay,[1]; [15],100.62%
same,Specific Rotation,[1]; [15],+86.29°
same,Water content,[1]; [15],0.28%
same,Appearance,[1]; [16],Normal
same,Assay,[1]; [16],99.95%
same,Specific Rotation,[1]; [16],+86.67°
same,Water content,[1]; [16],0.24%
same,Appearance,[1]; [17],Normal
same,Assay,[1]; [17],99.88%
same,Specific Rotation,[1]; [17],+87.58°
same,Water content,[1]; [17],0.18%
same,Appearance,[1]; [18],Normal
same,Assay,[1]; [18],99.43%
same,Specific Rotation,[1]; [18],+84.35°
same,Water content,[1]; [18],0.42%
same,Appearance,[1]; [19],Normal
same,Specific Rotation,[1]; [19],+85.62°
same,Water content,[1]; [19],0.66%
same,Appearance,[1]; [20],Normal
same,Assay,[1]; [20],98.82%
same,Specific Rotation,[1]; [20],+86.73°
same,Water content,[1]; [20],0.70%
same,Appearance,[1]; [21],Normal
same,Specific Rotation,[1]; [21],+86.07°
same,Water content,[1]; [21],0.52%
same,Appearance,[1]; [22],Normal
same,Assay,[1]; [22],99.06%
same,Specific Rotation,[1]; [22],+86.01°
same,Water content,[1]; [22],0.73%
same,Appearance,[1]; [23],Normal
same,Assay,[1]; [23],99.04%
same,Specific Rotation,[1]; [23],+86°
same,Water content,[1]; [23],1.10%
same,Appearance,[1]; [24],Normal
same,Specific Rotation,[1]; [24],+85.16°
same,Water content,[1]; [24],0.27%
same,Appearance,[1]; [25],Normal
same,Specific Rotation,[1]; [25],+85.81°
same,Water content,[1]; [25],0.22%
same,Appearance,[1]; [26],Normal
same,Assay,[1]; [26],98.96%
same,Specific Rotation,[1]; [26],+85.74°
same,Water content,[1]; [26],0.20%
same,Appearance,[1]; [27],Normal
same,Assay,[1]; [27],98.82%
same,Specific Rotation,[1]; [27],+82.67°
same,Water content,[1]; [27],0.49%
same,Appearance,[1]; [28],Normal
same,Assay,[1]; [28],98.75%
same,Specific Rotation,[1]; [28],+86.01°
same,Water content,[1]; [28],0.73%
same,Appearance,[1]; [29],Normal
same,Assay,[1]; [29],98.52%
same,Specific Rotation,[1]; [29],+86°
same,Water content,[1]; [29],1.10%
same,Appearance,[1]; [30],Normal
same,Specific Rotation,[1]; [30],+86.07°
same,Water content,[1]; [30],0.52%
same,stability in storage,"[1]; storage, listed as crystalline TGS of this invention",stable in storage for one year
same,Assay (%),[2]; First day,99.2%
same,PH,[2]; First day,7.90
same,Assay (%),[2]; Fourth day,99.12%
same,PH,[2]; Fourth day,7.62
same,percent assay as well as pH,[2]; over the test period,stable
same,Solubility,[3],water. Slightly
same,mean particle size,Particle size analysis,about 4.2 micron
same,particle size distribution at 90%,Particle size analysis; listed as Example 2,below 10 microns
same,particle size distribution at 90%,Particle size analysis; listed as crystallized product,< 10 microns
same,mean particle size,Particle size analysis; listed as Example 2,4.2 micron
